Experimental findings from patent US20240156790A1, “COMPOUNDS, COMPOSITIONS, AND METHODS FOR MODULATING FERROPTOSIS AND TREATING EXCITOTOXIC DISORDERS” (THE TRUSTEES OF COLUMBIA UNIVERSITY IN THE CITY OF NEW YORK, priority 2018, published 2024) are described below.

Data set [1] is described as follows: PHB4082 IP PK Study (plasma, brain, liver, kidney). Type of data set: in vivo, C57BL/6 mice. As to the method: C57BL/6 mice (8-weeks of age and ˜25 g weight) were weighed before injection and divided into groups of two male and female mice per cage. PHB4082 was dissolved in 5% DMSO/95% of 65% v/v of 25% w/v 2-hydroxypropyl-3-cyclodextrin (Cayman Chemical) dissolved in 20% EtOH, 30% v/v Poly(ethylene glycol)-400 (Sigma Aldrich 202398), 5% v/v Tween 80 (Fluka 59924) to create a 2 mg/mL Solution. The same formulation without PHB4082 was used as a vehicle control. The solution was sterilized using a […] Steriflip filter unit (Thomas Scientific 1189Q46) and stored at 4° C. Mice were dosed IP and euthanized by CO2 asphyxiation for 3 min at 0, 1, 2, 4, and 8 h after administration. To ensure that the vehicle was well-tolerated, four mice were treated with vehicle and euthanized 4 h after administration. ˜0.5 mL of blood was collected via cardiac puncture and immediately put in K3 EDTA microtubes ([…] 41.1504.105) and kept on ice. Organs were harvested, placed in Eppendorf tubes, and frozen on dry ice. Blood samples were centrifuged for 10 min at 2,100×g at 4° C., then plasma was transferred to a clean tube and frozen on dry ice. Organ samples were weighed and placed in hard tissue homogenizing tubes (Omni International 19-628) and a volume of DEPC-treated nuclease-free water (IBI Scientific IB42200) was added to make a 500 mg/mL solution and homogenized using the Omni Bead Ruptor 4 at speed 5 for 30 seconds. PHB4082 was extracted from plasma or organ homogenate by adding 900 μL acetonitrile to 100 μL plasma or organ homogenate. Samples were mixed by vortexing and allowed to extract overnight at 4° C. prior to mixing for at least 5 min by rotating at room temperature, vortexing, and sonicating for at least 30 second prior to centrifugation for 10 min at 4,000×g and 4° C. The supernatant was then transferred to a glass vial and dried under nitrogen. After drying, the samples were resuspended in 100 μL of methanol and analyzed by UPLC-MS described below. The concentration of PHB4082 was determined against a standard curve with a linear fit and the data plot in GraphPad Prism 9 and fit with a one phase decay.
To evaluate whether PHB4082 was a suitable candidate for in vivo studies, we performed a pharmacokinetic study of PHB4082 in C57BL/6 mice at ˜8 weeks of age. To evaluate sex-specific effects on compound metabolism, two male and two female mice were used for each condition. Mice were dosed at 20 mg/kg via intraperitoneal (IP) injection and the injection volume ranged from 180 uL to 300 uL based on different body weights. […] Extracts were analyzed via UPLC-MS and the concentration of compound determined against a standard curve ran concurrently with samples.

Data set [2] is described as follows: PHB4082 IP, IV Study (cyclodextrin/PEG/tween vehicle). It is filed as in vivo, C57BL/6 mice. The note with it: both sexes, C57BL/6, mouse; for concentration at 2 h / concentration at 4 h: 10 mg/kg. How it is done:
C57BL/6 mice (8-weeks of age and ˜25 g weight) were weighed before injection and divided into groups of two male and female mice per cage. PHB4082 was dissolved in 5% DMSO/95% of 1:1 [(65% v/v of 25% w/v 2-hydroxypropyl-3-cyclodextrin (Cayman Chemical) dissolved in 20% EtOH, 30% v/v Poly(ethylene glycol)-400 (Sigma Aldrich 202398), 5% v/v Tween 80 (Fluka 59924)):MilliQ water] to create a 2 mg/mL solution. The same formulation without PHB4082 was used as a vehicle control. The solution was sterilized using a […] Steriflip filter unit (Thomas Scientific 1189Q46). Mice were dosed IP, and IV routes of administration and euthanized by CO2 asphyxiation for 3 min at 2 and 4 h after administration. To ensure that the vehicle was well-tolerated, four mice for each timepoint were treated with vehicle and euthanized 4 h and 24 h after administration. ˜0.5 mL of blood was collected via cardiac puncture and immediately put in K3 EDTA microtubes ([…] 41.1504.105) and kept on ice. Organs were harvested, placed in Eppendorf tubes, and frozen on dry ice. Blood samples were centrifuged for 10 min at 2,100×g at 4° C., then plasma was transferred to a clean tube and frozen on dry ice. Organ samples were weighed and placed in hard tissue homogenizing tubes (Omni International 19-628) and a volume of DEPC-treated nuclease-free water (IBI Scientific IB42200) was added to make a 500 mg/mL solution and homogenized using the Omni Bead Ruptor 4 at speed 5 for 30 seconds. Compound was extracted from plasma or organ homogenate by adding 900 μL acetonitrile to 100 μL plasma or organ homogenate. Samples were mixed by vortexing and allowed to extract overnight at 4° C. prior to mixing for at least 5 min by rotating at room temperature, vortexing, and sonicating for at least 30 second prior to centrifugation for 10 min at 4,000×g and 4° C. The supernatant was then transferred to a glass vial and analyzed by UPLC-MS described below. The base peak chromatogram was integrated and quantified by standard curve concurrently ran.
To determine whether PHB4082 accumulated in brain preferentially over plasma, the log10(Brain/Plasma) ratio was calculated for each time-point with a log10(Brain/Plasma) >0 indicating preferential accumulation in brain over plasma. We observed that PHB4082 did slightly accumulate in brain over plasma as time progressed (FIG. 21B); however, at the time-point where PHB4082 preferentially accumulated in brain, the difference in concentration in the brain compared to plasma was low, indicated by the near 0 log values.

Where [3] appears, read: brain, IP Administration, read-out: [PHB4082]brain.
Where [4] appears, read: brain, IV Administration, read-out: [PHB4082]brain.
Where [5] appears, read: plasma, IP Administration, read-out: [PHB4082]plasma.
Where [6] appears, read: plasma, IV Administration, read-out: [PHB4082]plasma.

Read-outs that look alike come from different tables or passages of the source.

Turning to `Cc1noc(-c2ccc(NC3CCCCC3)c(NC3CCCCC3)c2)n1` [PHB4082, N1,N2-dicyclohexyl-4-(3-methyl-1,2,4-oxadiazol-5-yl)benzene-1,2-diamine], in data set [1] (20 mg/kg IP), the “accumulation in plasma and brain” value is listed as roughly 100 nM. Moreover, the “tissue accumulation, in words” value in data set [1] (IP) is “stably accumulates in mouse kidney with minimal accumulation observed in brain”. Besides, in data set [1] (PK study of PHB4082), the concentration in brain entry is listed as “around 200 nM”. Further, the concentration at 8 h in data set [1] (both sexes, C57BL/6, mouse, kidney, intraperitoneal, 20 mg/kg IP, at eight hours) worked out at 1800 nM. The compound also yielded a log10 Kp (brain/plasma) in data set [2] (brain and plasma, other: intraperitoneally and intravenously, 10 mg/kg intraperitoneally and intravenously) of less than 0. In addition, the concentration at 2 h is 114 ± 21 nM in data set [2] (setting [3]), 557 ± 245 nM in data set [2] (setting [4]), 634 ± 359 nM in data set [2] (setting [6]) and 957 ± 693 nM in data set [2] (setting [5]). The concentration at 4 h amounted to 99 ± 62 nM in data set [2] (setting [3]), 176 ± 76 nM in data set [2] (setting [4]), 306 ± 379 nM in data set [2] (setting [5]) and 281 ± 284 nM in data set [2] (setting [6]).
